Structures are written as SMILES. pIC50: −log10 of the molar value. ≈ marks a conversion by molar mass, not a printed value. Bounds are passed on as bounds.

Experiment [1] has as its target T1, Histone deacetylase (Homo sapiens) (UniProt Q13547+O15379+Q9UBN7+Q92769+Q9UQL6+Q8WUI4+Q9BY41+Q96DB2+P56524+Q9UKV0+Q969S8). Description: Percent inhibition against isolated Histone deacetylase enzyme at 30 uM. It is filed as protein assay.
The next experiment concerns the target T2, Histone deacetylase HD2 (Zea mays, UniProt Q94F81).
T2 sequence (Q94F81 whole entry): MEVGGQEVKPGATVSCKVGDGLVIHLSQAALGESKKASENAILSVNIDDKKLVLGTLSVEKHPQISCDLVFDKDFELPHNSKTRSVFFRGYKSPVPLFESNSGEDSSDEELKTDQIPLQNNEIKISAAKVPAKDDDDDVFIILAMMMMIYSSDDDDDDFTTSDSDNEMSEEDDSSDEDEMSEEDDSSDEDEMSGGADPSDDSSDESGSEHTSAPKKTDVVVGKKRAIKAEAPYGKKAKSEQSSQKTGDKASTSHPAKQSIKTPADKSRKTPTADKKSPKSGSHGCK
Description: Inhibitory concentration against maize Histone deacetylase 2.

Experiment [2] has as its target T1, Histone deacetylase (Homo sapiens). Nature of the experiment: Inhibitory concentration against human Histone deacetylase. The class given is protein assay. Particulars: concentration not given here.
A further experiment relates to HCT-116. Description: Inhibitory concentration against HCT116 cells proliferation. It is filed as functional, cell-based. Particulars: Homo sapiens.
A further experiment addresses Histone deacetylase. The class given is protein assay, Homo sapiens.
Experiment [3] has as its target Histone deacetylase 1 (Homo sapiens, UniProt Q13547, C151S). Nature of the experiment: Inhibitory concentration against human Histone deacetylase 1 (C151S).
For the next experiment, the system named is HT-29. Description: In vitro inhibitory concentration against HT-29 tumor cell proliferation. Conditions: Homo sapiens. It is filed as functional, cell-based.
A further experiment relates to Jurkat. Nature of the experiment: In vitro inhibitory concentration against human Jurkat cell proliferation. The class given is functional, cell-based.
The nature of experiment [4]: Inhibitory concentration against mixed human Histone deacetylase 1, Histone deacetylase 2 and Histone deacetylase 3.
A further experiment addresses Histone deacetylase 2 (Homo sapiens, UniProt Q92769). Nature of the experiment: Inhibitory concentration against human Histone deacetylase 2.
Experiment [5] addresses T3, Protein deacetylase HDAC6 (Homo sapiens, UniProt Q9UBN7).
T3 sequence (Q9UBN7 whole entry): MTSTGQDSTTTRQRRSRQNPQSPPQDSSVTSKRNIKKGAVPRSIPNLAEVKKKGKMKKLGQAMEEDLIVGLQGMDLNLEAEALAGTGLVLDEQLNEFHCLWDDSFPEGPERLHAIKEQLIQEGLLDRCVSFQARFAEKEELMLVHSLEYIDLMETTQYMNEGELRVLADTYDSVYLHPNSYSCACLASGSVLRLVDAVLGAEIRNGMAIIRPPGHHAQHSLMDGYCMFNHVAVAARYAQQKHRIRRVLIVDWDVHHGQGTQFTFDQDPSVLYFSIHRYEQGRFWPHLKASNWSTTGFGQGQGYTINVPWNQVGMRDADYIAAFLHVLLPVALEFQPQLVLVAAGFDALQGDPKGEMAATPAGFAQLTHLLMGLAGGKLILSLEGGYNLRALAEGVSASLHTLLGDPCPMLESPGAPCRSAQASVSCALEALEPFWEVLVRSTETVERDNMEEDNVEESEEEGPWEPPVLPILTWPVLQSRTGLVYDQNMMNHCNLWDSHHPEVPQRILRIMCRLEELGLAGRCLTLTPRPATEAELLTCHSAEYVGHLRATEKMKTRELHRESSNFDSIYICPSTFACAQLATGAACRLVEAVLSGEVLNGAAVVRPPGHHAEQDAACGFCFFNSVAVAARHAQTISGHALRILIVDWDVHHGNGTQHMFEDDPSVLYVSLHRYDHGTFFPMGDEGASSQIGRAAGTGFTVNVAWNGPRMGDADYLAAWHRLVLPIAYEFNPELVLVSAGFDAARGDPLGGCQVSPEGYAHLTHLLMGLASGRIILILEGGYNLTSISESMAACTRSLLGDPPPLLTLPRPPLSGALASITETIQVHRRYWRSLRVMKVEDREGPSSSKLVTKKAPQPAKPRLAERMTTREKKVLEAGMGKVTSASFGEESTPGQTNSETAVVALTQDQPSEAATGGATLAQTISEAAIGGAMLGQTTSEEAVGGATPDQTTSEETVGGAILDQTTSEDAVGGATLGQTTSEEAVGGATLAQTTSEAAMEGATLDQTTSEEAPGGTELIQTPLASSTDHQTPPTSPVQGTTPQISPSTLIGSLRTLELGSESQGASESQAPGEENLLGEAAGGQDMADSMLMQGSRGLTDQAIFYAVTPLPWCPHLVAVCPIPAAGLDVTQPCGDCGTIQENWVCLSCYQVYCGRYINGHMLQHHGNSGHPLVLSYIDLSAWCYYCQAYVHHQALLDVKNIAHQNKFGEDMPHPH
Description: Inhibitory concentration against human Histone deacetylase 6.

The target of experiment [6] is Histone deacetylase 1 (Homo sapiens, UniProt Q13547). Nature of the experiment: Inhibitory concentration against human Histone deacetylase 1.
Histone deacetylase 1 (Homo sapiens, UniProt Q13547), sequence (Q13547 whole entry): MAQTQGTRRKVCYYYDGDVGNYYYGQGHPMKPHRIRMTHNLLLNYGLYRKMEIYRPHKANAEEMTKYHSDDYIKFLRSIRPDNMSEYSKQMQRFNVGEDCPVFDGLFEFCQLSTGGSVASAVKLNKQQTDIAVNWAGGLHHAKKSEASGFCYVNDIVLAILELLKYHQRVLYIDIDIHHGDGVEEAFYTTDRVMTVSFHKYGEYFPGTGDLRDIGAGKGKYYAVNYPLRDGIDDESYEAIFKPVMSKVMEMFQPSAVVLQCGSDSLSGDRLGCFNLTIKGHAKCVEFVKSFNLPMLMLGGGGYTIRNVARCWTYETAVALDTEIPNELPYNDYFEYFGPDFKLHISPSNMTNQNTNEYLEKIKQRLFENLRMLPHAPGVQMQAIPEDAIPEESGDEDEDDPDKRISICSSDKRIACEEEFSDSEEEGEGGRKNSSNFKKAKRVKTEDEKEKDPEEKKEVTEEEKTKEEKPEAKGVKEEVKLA
In another experiment the target is Histone deacetylase 4 (Homo sapiens, UniProt P56524).
Histone deacetylase 4, sequence (P56524 whole entry): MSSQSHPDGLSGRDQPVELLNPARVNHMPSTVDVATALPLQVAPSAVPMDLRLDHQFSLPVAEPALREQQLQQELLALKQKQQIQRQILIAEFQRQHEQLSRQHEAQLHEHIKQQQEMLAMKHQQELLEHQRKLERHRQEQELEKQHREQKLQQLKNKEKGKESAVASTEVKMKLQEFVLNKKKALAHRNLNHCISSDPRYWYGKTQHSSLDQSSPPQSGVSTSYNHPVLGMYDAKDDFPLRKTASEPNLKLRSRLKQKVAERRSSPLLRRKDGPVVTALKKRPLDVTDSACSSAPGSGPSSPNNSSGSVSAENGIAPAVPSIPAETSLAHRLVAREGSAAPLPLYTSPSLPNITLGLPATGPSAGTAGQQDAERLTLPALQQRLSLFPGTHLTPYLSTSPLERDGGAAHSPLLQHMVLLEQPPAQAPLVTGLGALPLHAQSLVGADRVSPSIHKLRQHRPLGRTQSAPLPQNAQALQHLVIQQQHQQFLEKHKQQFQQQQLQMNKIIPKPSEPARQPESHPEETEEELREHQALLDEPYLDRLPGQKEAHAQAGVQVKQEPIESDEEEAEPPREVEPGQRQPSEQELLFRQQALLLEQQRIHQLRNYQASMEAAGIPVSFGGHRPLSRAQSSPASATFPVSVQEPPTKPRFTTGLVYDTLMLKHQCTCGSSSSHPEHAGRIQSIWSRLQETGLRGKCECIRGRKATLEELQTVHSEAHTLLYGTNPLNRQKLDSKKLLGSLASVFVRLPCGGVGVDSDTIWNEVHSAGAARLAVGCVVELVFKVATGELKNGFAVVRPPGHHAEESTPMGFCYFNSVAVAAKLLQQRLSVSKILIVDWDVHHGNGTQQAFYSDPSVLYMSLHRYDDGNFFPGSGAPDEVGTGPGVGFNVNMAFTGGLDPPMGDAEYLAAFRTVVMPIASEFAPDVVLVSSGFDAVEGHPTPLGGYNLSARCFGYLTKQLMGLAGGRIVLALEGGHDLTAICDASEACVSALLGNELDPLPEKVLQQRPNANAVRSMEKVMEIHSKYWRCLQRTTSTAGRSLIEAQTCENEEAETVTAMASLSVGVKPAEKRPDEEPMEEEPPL

Histone deacetylase 2, sequence (Q92769 whole entry): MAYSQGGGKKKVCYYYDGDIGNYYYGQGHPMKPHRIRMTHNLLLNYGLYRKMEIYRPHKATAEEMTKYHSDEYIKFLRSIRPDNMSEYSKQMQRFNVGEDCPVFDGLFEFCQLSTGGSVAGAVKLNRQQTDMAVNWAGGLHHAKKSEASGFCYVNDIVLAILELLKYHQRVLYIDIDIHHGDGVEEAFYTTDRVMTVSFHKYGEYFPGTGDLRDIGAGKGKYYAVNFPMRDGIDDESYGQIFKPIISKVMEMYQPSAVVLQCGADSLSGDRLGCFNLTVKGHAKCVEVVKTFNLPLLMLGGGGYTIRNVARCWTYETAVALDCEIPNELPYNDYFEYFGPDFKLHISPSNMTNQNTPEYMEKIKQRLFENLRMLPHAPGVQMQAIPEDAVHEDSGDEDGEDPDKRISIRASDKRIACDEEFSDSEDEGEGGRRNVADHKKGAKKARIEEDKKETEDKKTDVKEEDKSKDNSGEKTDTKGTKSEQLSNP
Histone deacetylase 1 (Homo sapiens, UniProt Q13547, C151S), sequence (Q13547 whole entry C151S): as the sequence (Q13547 whole entry) above, with C151S counted along it
Description for Histone deacetylase 4: Inhibitory concentration against human Histone deacetylase 4

In [1], `Cn1cc(C(=O)Cc2ccccc2)cc1/C=C/C#N` had an inhibition of 0%.

On Histone deacetylase HD2, `CN(C)c1ccc(C(=O)Nc2ccc(CC(=O)NO)cc2)cc1` showed a pIC50 of less than 4.40.

In [2], `O=C(CCCCCCCOc1ccc(-c2ccccc2)cc1)C(F)(F)F` yielded an inhibition of 72%.

In the case of `O=C(/C=C/c1ccc(CNCCCc2ccccc2)cc1)NO`, the pIC50 in the experiment on HCT-116 was 7.19. Further, the 50% inhibitory concentration (IC50) against Histone deacetylase is 64 nM.

As to `C/C=C1\NC(=O)[C@H]2CSSCC/C=C/[C@H](CC(=O)N[C@H](C(C)C)C(=O)N2)OC(=O)[C@H](C(C)C)NC1=O` [ROMIDEPSIN], the pIC50 against Histone deacetylase 1 [3] is 6.55.

`CCC(=O)CCCCC[C@@H]1NC(=O)[C@H]2CCCCN2C(=O)[C@H](Cc2ccccc2)NC(=O)[C@H](Cc2ccccc2)NC1=O`: the IC50 with HT-29 was 0.158 µg/mL (≈ 0.268 µM); in the experiment with Jurkat, 0.152 µg/mL (≈ 0.258 µM).

`N#Cc1ccc(-c2ccc(OCCCCCCC(=O)NO)cc2)cc1` showed a pIC50 in experiment [4] of 8.05.

Consider `C/C=C1\NC(=O)[C@@H](CSC)NC(=O)[C@@H](C(C)C)CC(=O)C[C@@H](/C=C/CCSC)OC(=O)[C@H](C(C)C)NC1=O`, for which the pIC50 was less than 4.00 on Histone deacetylase 1 [3]; 5.48 against Histone deacetylase 2; less than 4.00 in [5]; 5.20 at Histone deacetylase 1 [6]; 3.96 at Histone deacetylase 4.

As for `C/C=C1\NC(=O)[C@@H](CS)NC(=O)[C@@H](C(C)C)NC(=O)C[C@@H](/C=C/CCS)OC(=O)[C@H](C(C)C)NC1=O` [FR-135313], the figures for the pIC50 (on Histone deacetylase 2; in experiment [5]; on Histone deacetylase 4) were 8.41, 6.10 and 7.60, respectively.

These data come from ChEMBL document CHEMBL1145900, “Histone deacetylase inhibitors” (J Med Chem, 2003).
